Our source for the MIC and Activity values is ChEMBL document CHEMBL2016471, “5-benzylidenerhodanine and 5-benzylidene-2-4-thiazolidinedione based antibacterials” (2012).

In brackets after ≈: the same amount, converted by molar mass. Activity calls are given as the source filed them. The calls are words filed in the database; no cut-off is given here.

Assay [1] has as its system Staphylococcus aureus. Description: Antibacterial activity against Staphylococcus aureus ATCC 31890. In kind it is functional.
Assay [2] deals with Staphylococcus epidermidis. Briefly: Antibacterial activity against Staphylococcus epidermidis. In kind it is functional.
The test system of the next assay is Bacillus subtilis. Briefly: Antibacterial activity against Bacillus subtilis ATCC 6633. Format: functional.
Assay [3] concerns Escherichia coli. Briefly: Antibacterial activity against Escherichia coli K-12. In kind it is functional, organism-based.
Assay [4] concerns Escherichia coli. Description: Antibacterial activity against TolC-deficient Escherichia coli. Format: functional.
Assay [5] relates to Staphylococcus aureus. Description: Bacteriostatic activity against Staphylococcus aureus after 6 hrs. Format: functional, organism-based.

Take `CCCc1ccccc1NC(=O)[C@H](CC(C)C)NC(=O)c1ccc(/C=C2\SC(=O)NC2=O)cc1`: the values for the MIC (against Staphylococcus aureus [1]; in assay [2]; against Bacillus subtilis) were over 64 µg/mL, over 64 µg/mL and 8 µg/mL (≈ 16.7 µM), respectively. The result in the assay with Escherichia coli [3] was inactive.
On to `CCCc1ccccc1NC(=O)[C@H](COCc1ccccc1)NC(=O)c1ccc(/C=C2\SC(=S)NC2=O)cc1`, for which the MIC (in general, the least concentration at which growth counts as inhibited) against Staphylococcus aureus [1] was over 64 µg/mL; in assay [2], over 64 µg/mL; against Bacillus subtilis it was 8 µg/mL (≈ 14.3 µM). In addition, the outcome in the assay on Escherichia coli [3] was inactive.
Take `O=C1NC(=S)S/C1=C\c1ccco1`: the values for the MIC (in the assay with Staphylococcus aureus [1]; in assay [2]; against Bacillus subtilis) were 16 µg/mL (≈ 75.7 µM), 16 µg/mL (≈ 75.7 µM) and over 64 µg/mL, respectively. The result with Escherichia coli [3] was inactive.
Take `CCCc1ccccc1NC(=O)[C@H](Cc1ccc(O)cc1)NC(=O)c1ccc(/C=C2\SC(=S)NC2=O)cc1`: the figures for the minimum inhibitory concentration (MIC) (with Staphylococcus aureus [1]; in assay [2]; in the assay on Bacillus subtilis) were over 64 µg/mL, over 64 µg/mL and 8 µg/mL (≈ 14.7 µM), respectively. Further, the outcome in the assay on Escherichia coli [3] was inactive.
Take `CCCc1ccccc1NC(=O)[C@H](C)NC(=O)c1ccc(/C=C2\SC(=S)NC2=O)cc1`: the minimal inhibitory concentration (MIC) against Staphylococcus aureus [1] is over 64 µg/mL; in assay [2], over 64 µg/mL; against Bacillus subtilis it was 32 µg/mL (≈ 70.5 µM). For the same molecule, the result with Escherichia coli [3] was inactive.
As to `CCCc1ccccc1NC(=O)[C@H](Cc1ccccc1)NC(=O)c1ccc(/C=C2\SC(=S)NC2=O)cc1`, the minimum inhibitory concentration (MIC) (with Staphylococcus aureus [1]; in assay [2]; in the assay with Bacillus subtilis) was over 64 µg/mL throughout. For the same molecule, the result in the assay with Escherichia coli [3] was inactive.
With `O=C1NC(=O)/C(=C/c2ccccc2)S1`, the minimal inhibitory concentration (MIC) (against Staphylococcus aureus [1]; in assay [2]; in the assay with Bacillus subtilis) was over 64 µg/mL each time. The outcome in the assay on Escherichia coli [3] was inactive.
On to `O=C1NC(=S)S/C1=C\c1ccc2ccccc2c1`, for which the MIC against Staphylococcus aureus [1] is 0.5 µg/mL (≈ 1.84 µM); in assay [2] it was 0.5 µg/mL (≈ 1.84 µM); with Bacillus subtilis, over 64 µg/mL; in the assay with Escherichia coli [4], 8 µg/mL (≈ 29.5 µM). Further, the outcome in the assay with Escherichia coli [3] was inactive.
In the case of `CCCc1ccccc1NC(=O)[C@H](CC(C)C)NC(=O)c1ccc(/C=C2\SC(=S)NC2=O)cc1`, the results for the MIC (with Staphylococcus aureus [1]; in assay [2]; with Bacillus subtilis) were over 64 µg/mL, over 64 µg/mL and 32 µg/mL (≈ 64.6 µM), respectively. Further, the result in the assay on Escherichia coli [3] was inactive.
Regarding `O=C1NC(=S)S/C1=C\c1ccc(C(=O)O)cc1`, the MIC (with Staphylococcus aureus [1]; in assay [2]; in the assay with Bacillus subtilis) was over 64 µg/mL throughout. Moreover, the outcome in the assay on Escherichia coli [3] was inactive.
`CCCc1ccccc1NC(=O)[C@H](C)NC(=O)c1ccc(/C=C2\SC(=O)NC2=O)cc1`: the minimal inhibitory concentration (MIC) (against Staphylococcus aureus [1]; in assay [2]; with Bacillus subtilis) was over 64 µg/mL in each case. In the assay on Escherichia coli [3], the outcome was inactive.
On to `CCCc1ccccc1NC(=O)[C@H](CO)NC(=O)c1ccc(/C=C2\SC(=S)NC2=O)cc1`, for which the MIC (against Staphylococcus aureus [1]; in assay [2]; against Bacillus subtilis) was over 64 µg/mL in each case. In addition, the outcome in the assay on Escherichia coli [3] was inactive.
As for `CCCc1ccccc1OC[C@H](O)COc1ccc(/C=C2\SC(=S)NC2=O)cc1`, the MIC against Staphylococcus aureus [1] came out at 16 µg/mL (≈ 37.2 µM); in assay [2], 32 µg/mL (≈ 74.5 µM); against Bacillus subtilis, 16 µg/mL (≈ 37.2 µM). Besides, the outcome with Escherichia coli [3] was inactive. The result in the assay with Staphylococcus aureus [5] was Active.
As to `CCCc1ccccc1NC(=O)[C@H](Cc1ccccc1)NC(=O)c1ccc(/C=C2\SC(=O)NC2=O)cc1`, the MIC against Staphylococcus aureus [1] is over 64 µg/mL; in assay [2], over 64 µg/mL; against Bacillus subtilis it was 8 µg/mL (≈ 15.6 µM). The outcome with Escherichia coli [3] was inactive.
Regarding `O=C1NC(=O)/C(=C/c2ccc(C(=O)O)cc2)S1`, the minimal inhibitory concentration (MIC) (in the assay with Staphylococcus aureus [1]; in assay [2]; against Bacillus subtilis) was over 64 µg/mL each time. Besides, the result in the assay with Escherichia coli [3] was inactive.
In the case of `CCCc1ccccc1NC(=O)[C@H](COC(C)(C)C)NC(=O)c1ccc(/C=C2\SC(=S)NC2=O)cc1`, the MIC in the assay on Staphylococcus aureus [1] is 16 µg/mL (≈ 30.4 µM); in assay [2] it was 16 µg/mL (≈ 30.4 µM); with Bacillus subtilis, 8 µg/mL (≈ 15.2 µM). Moreover, the outcome in the assay on Escherichia coli [3] was inactive.
Regarding `CCCc1ccccc1OC[C@H](O)COc1ccc(/C=C2\SC(=O)NC2=O)cc1`, the minimum inhibitory concentration (MIC) in the assay on Staphylococcus aureus [1] was over 64 µg/mL; in assay [2] it was over 64 µg/mL; against Bacillus subtilis, 8 µg/mL (≈ 19.3 µM). Besides, in the assay with Escherichia coli [3], the outcome was inactive.
Turning to `O=C1NC(=O)/C(=C/c2cccnc2)S1`, the MIC (in the assay on Staphylococcus aureus [1]; in assay [2]; in the assay on Bacillus subtilis) was over 64 µg/mL throughout. Besides, in the assay with Escherichia coli [3], the result was inactive.
For the molecule `CCCc1ccccc1NC(=O)[C@H](CO)NC(=O)c1ccc(/C=C2\SC(=O)NC2=O)cc1`, the minimal inhibitory concentration (MIC) (with Staphylococcus aureus [1]; in assay [2]; against Bacillus subtilis) was over 64 µg/mL throughout. In the assay with Escherichia coli [3], the result was inactive.
